ChEMBL document CHEMBL5724558, “Image-based profiling of drug vulnerabilities in CRC organoids” (2024)
“And” between values parts separate entries of the source, which are not always exact repeats. Equal values may be shown once.

Key:
Format in all cases: functional, Homo sapiens
Set-up in all cases: dose or concentration left out as unconfirmed
[1] = tested on: Colon cancer organoid; experiment: Image-based profiling of donated chemical probes and chemogenomic kinase set in O06 CRC organoid. Image analysis is performed on the sum area metric, and the data were normalized to the DMSO control. After imaging the organoid viability is measured using the OneGloEX Luciferase Assay System. The normalized viability data and sum area are reported.
[2] = tested on: Colon cancer organoid; experiment: Image-based profiling of donated chemical probes and chemogenomic kinase set in O09 CRC organoid. Image analysis is performed on the sum area metric, and the data were normalized to the DMSO control. After imaging the organoid viability is measured using the OneGloEX Luciferase Assay System. The normalized viability data and sum area are reported.
[3] = tested on: Colon cancer organoid; experiment: Image-based profiling of donated chemical probes and chemogenomic kinase set in O21 CRC organoid. Image analysis is performed on the sum area metric, and the data were normalized to the DMSO control. After imaging the organoid viability is measured using the OneGloEX Luciferase Assay System. The normalized viability data and sum area are reported.

SMILES	Cell Viability ([1]; Replication number 1)	Cell Viability ([1]; Replication number 2)	Cell Viability ([2]; Replication number 1)	Cell Viability ([2]; Replication number 2)	Cell Viability ([3]; Replication number 1)	Cell Viability ([3]; Replication number 2)
Cn1c(C2(NC(=O)c3ccc4c(C5CCCC5)c(-c5ncc(Br)cn5)n(C)c4c3)CCC2)nc2ccc(/C=C/C(=O)O)cc21 [DELEOBUVIR]	72.8568% and 101.611%	116.691% and 122.099%	177.935% and 120.27%	86.2792% and 92.0585%	112.195% and 113.344%	113.774% and 112.777%
C[C@]1(O)C[C@@H](c2nc(-c3ccc4ccc(-c5ccccc5)nc4c3)c3c(N)nccn32)C1 [LINSITINIB]	20.2503% and 50.5216%	16.9529% and 40.5141%	48.5771% and 41.3901%	29.8323% and 45.6217%	65.7988% and 93.6585%	45.8203% and 78.3015%
COCCc1ccc(-c2c(C)nc3c(N4CCOCC4)ccnn23)cn1 [JNJ-42396302]	105.08% and 93.5817%	103.056% and 100.227%	173.111% and 114.826%	149.141% and 104.184%	87.7084% and 77.6404%	105.989% and 98.0422%
CN(C)C(=O)c1cc2cnc(Nc3ccc(N4CCNCC4)cn3)nc2n1C1CCCC1 [RIBOCICLIB]	18.4025% and 48.7411%	14.7054% and 40.1028%	49.4558% and 44.8808%	42.3849% and 44.8119%	76.3687% and 83.6237%	91.6892%
O=C(N[C@H]1CCCCC/C=C\C2C[C@@]2(C(=O)O)NC(=O)[C@@H]2C[C@@H](Oc3ccncc3)CN2C1=O)OC1CCCC1 (stereo partly specified) [BI 1675]	69.4015% and 71.6628%	66.5819% and 62.7776%	116.319% and 81.4707%	190.904% and 132.895%	85.4317% and 92.5614%	88.5187% and 94.3878%
CC(C)N(CCCNC(=O)Nc1ccc(C(C)(C)C)cc1)C[C@H]1O[C@@H](n2cc(Br)c3c(N)ncnc32)[C@H](O)[C@@H]1O	99.7362% and 93.745%	121.159% and 96.0701%	88.0955% and 91.1128%	116.782% and 110.611%	110.58% and 96.4076%	91.3203% and 86.9928%
Cc1nc(NC(=O)N2CCC[C@H]2C(N)=O)sc1-c1ccnc(C(C)(C)C(F)(F)F)c1 [ALPELISIB]	55.6533% and 63.4302%	57.1927% and 78.1491%	78.5129% and 75.0506%	83.7581% and 44.8119%	82.706% and 92.5436%	73.0527% and 85.7863%
Cc1c(N2CCNCC2)nc2ccc(Br)cc2c1C(=O)NC[C@H](CCC(=O)O)c1ccccc1Cl [BAY-403]	84.3877% and 124.372%	102.985% and 123.739%	84.5203% and 109.166%	120.857% and 102.102%	86.0908% and 103.128%	96.6508% and 95.8532%
Cc1cc(CN)cc(C)c1-c1ncn(C)c1-c1ccnc2cc(F)ccc12.Cl	218.867% and 141.584%	205.957% and 111.843%	165.285% and 103.632%	176.587% and 123.725%	125.215% and 107.577%	113.008% and 89.6778%
COc1ccccc1C(=O)Nc1cc2c(cc1N1CCNCC1C)n(C)c(=O)n2C (stereo unspecified)	207.592% and 157.772%	161.771% and 130.961%	86.1318% and 106.414%	94.809% and 101.774%	113.606% and 138.145%	93.8896% and 107.936%
Cc1c(C(=O)Nc2ccc(Oc3ccnc4[nH]cc(-c5ccccc5)c34)c(F)c2)c(=O)n(-c2ccc(F)cc2)n1C	83.9357% and 96.3695%	67.8056% and 89.2545%	202.234% and 105.47%	155.309% and 109.6%	102.708% and 102.021%	105.094% and 114.574%
CN(C)C(=O)/C(C#N)=C/c1ccc(-c2nc3cnc4c(ccn4C)c3n2C2CCCCC2)o1	94.8079% and 114.901%	118.022% and 96.0735%	117.89% and 123.735%	132.247% and 113.588%	100.887% and 101.443%	86.9771% and 102.576%
COCc1nc2cnc3cc(-c4c(C)noc4C)c(OC[C@H]4CCNC4)cc3c2n1[C@H](C)c1ccccc1 [GSK778]	42.5585% and 78.7045%	45.6544% and 89.6204%	36.9836% and 58.5219%	32.5027% and 49.1673%	115.801% and 111.859%	99.2147% and 116.757%
Cc1ccc(NC(=O)Nc2cc(C(F)(F)F)ccc2F)cc1Nc1ccc2c(c1)NC(=O)/C2=C\c1ccc[nH]1	171.109% and 157.262%	144.83% and 120.438%	128.92% and 93.5433%	146.444% and 106.907%	103.098% and 128.078%	94.098% and 129.212%
COc1cc(OC)cc(-c2noc(N3CCN(C)C4(CCN(c5ccccc5)CC4)C3)n2)c1	202.541% and 143.275%	168.695% and 116.861%	101.833% and 98.7635%	122.499% and 95.7871%	113.13% and 104.05%	103.365% and 96.1217%
COc1cc(C(=O)N2CC[C@@H](O)[C@@H](N)C2)cc2nc(-c3cc4ccccc4n3CC3CC3)n(C)c12.Cl	141.855% and 120.564%	139.679% and 135.263%	108.535% and 117.543%	77.7437% and 99.4932%	95.6097% and 101.11%	84.8651% and 86.9928%
CC(=O)Nc1cccc(-n2c(=O)n(C3CC3)c(=O)c3c(Nc4ccc(I)cc4F)n(C)c(=O)c(C)c32)c1 [TRAMETINIB]	5.765% and 5.759%	5.411% and 4.125%	7.185% and 14.6007%	7.6439% and 10.8886%	17.3032% and 24.3122%	17.3841% and 17.3982%
CO[C@@H](C)c1c(Nc2ccc([C@H](N(C)C(=O)C3CCS(=O)(=O)CC3)C(F)(F)F)cc2)cnc2cc(Cl)nn12 [NVS-MALT1]	53.942% and 90.6073%	65.826% and 102.355%	78.0421% and 97.349%	96.1339% and 95.7573%	116.026% and 99.8545%	97.0711% and 89.225%
COc1cc(-c2cn([C@H]3CCc4c(F)cccc4N(CC(F)(F)F)C3=O)nn2)ccc1-n1cnc(C)c1	98.6748% and 98.829%	105.811% and 104.708%	81.2479% and 97.2392%	40.0152% and 77.6926%	110.846% and 137.969%	98.2534% and 104.592%
CCOc1ccc(S(=O)(=O)Nc2ccc(Cl)cc2C#Cc2cnc(C(=O)[O-])cc2OC)c2ncccc12.[K+]	90.5182% and 89.6356%	107.269% and 105.718%	79.533% and 90.784%	112.265% and 100.119%	102.626% and 139.142%	112.375% and 81.0673%
Cc1ccc(-c2cnc([C@@]3(O)CC[C@H](C(=O)O)C(C)(C)C3)s2)cc1Nc1cccc(C(F)(F)F)n1 [MRL-SYKi-NC]	90.9085% and 96.9555%	94.2486% and 84.0983%	109.363% and 85.7712%	161.475% and 115.078%	112.056% and 96.0543%	96.6815% and 86.7347%
